Data taken from US10857150B2, “Use of sanglifehrin macrocyclic analogues as anticancer compounds” (NEUROVIVE PHARMACEUTICAL AB, priority 2016, dated 2020).

Experiments:
LIXC-002 = assay: 7-day proliferation assay, Calcein AM staining; type: cell-based, human; details: Homo sapiens, 168 h, Example 5, one experiment
Method: (§1) The cells were seeded in a 96-well plate, test compound or DMSO was added and the plate was incubated for additional four days or 7 days (Calcein AM assay). Viable cell counts were determined after detachment by treatment with trypsin either by trypan blue exclusion, flow cytometry, indirectly by measuring ATP content by addition of an ATP measuring reagent (CellTiter Glo), or Calcein AM, prepared according to the instruction of the manufacturer directly.
(§2) XLfit software ((Fit model: Dose response one site/^F(x)[fit=(A+((B−A)/(1+((C/x)^D))))]) for curve fitting and IC50 calculation) was used for curve fitting and IC50 calculation.
(§3) In vitro evaluation of a sanglifehrin macrocyclic analogue (1) for anticancer activity against human hepatocyte cancer cell lines in comparison with NV556 (10) a 7-day proliferation assay. The cell numbers were determined by Calcein AM staining as described in the methods section. Data are from one experiment with each cell line testing duplicate samples of 9 concentrations of each compound. Both compounds were included in each experiment.

LIXC-086 = assay: 7-day proliferation assay, Calcein AM staining; type: cell-based, human; details: Homo sapiens, 168 h
Method: as §1, §2, §3
as §3, with “the cyclophilin inhibitor alisporivir and the kinase inhibitor sorafenib in” for “NV556 (10)”, “one single” for “one”, “or means of two independent experiments” for “with each cell line”, “All three” for “Both”

LIXC-066 = assay: 7-day proliferation assay, Calcein AM staining; type: cell-based, human; details: Homo sapiens, 168 h
Method: as §1, §2, §3
as §3, with “the cyclophilin inhibitor alisporivir and the kinase inhibitor sorafenib in” for “NV556 (10)”, “one single” for “one”, “or means of two independent experiments” for “with each cell line”, “All three” for “Both”

LIXC-006 = assay: 7-day proliferation assay, Calcein AM staining; type: cell-based, human; details: Homo sapiens, 168 h
Method: as §1, §2, §3
as §3, with “the cyclophilin inhibitor alisporivir and the kinase inhibitor sorafenib in” for “NV556 (10)”, “one single” for “one”, “or means of two independent experiments” for “with each cell line”, “All three” for “Both”

Hep3B2.1-7-Luc = assay: 7-day proliferation assay, Calcein AM staining; type: cell-based, human; details: Homo sapiens, 168 h
Method: as §1, §2, §3
as §3, with “the cyclophilin inhibitor alisporivir and the kinase inhibitor sorafenib in” for “NV556 (10)”, “one single” for “one”, “or means of two independent experiments” for “with each cell line”, “All three” for “Both”

HepG2 [1] = assay: combination with sorafenib, 7-day proliferation assay (Calcein AM), isobologram; type: cell-based, human; details: combination with sorafenib at different doses
Method: as §1
To test for potential synergistic activity with sorafenib, compound 1 (A) was added at a range of concentrations along with a range of concentrations of sorafenib (B) against a liver cancer cell line, HepG2 in a 7-day proliferation assay (Calcein AM assay, described in the methods section). Data are from one single experiment representative of two independent experiments testing duplicate samples. The data was plotted in a normalized isobologram (Chou and Martin. CompuSyn for Drug Combinations: PC Software and User's Guide: A Computer Program for Quantitation of Synergism and Antagonism in Drug Combinations, and the Determination of IC50 and ED50 and LD50 Values, ComboSyn Inc, Paramus, (NJ), 2005) and is shown in FIG. 7. Values at the lower left below the hypotenuse indicate synergism.

LIXC-012 = assay: 7-day proliferation assay, Calcein AM staining; type: cell-based; details: Homo sapiens, 168 h, Example 6, n 2
Method: as §1, §2
as §3, with “the cyclophilin inhibitor alisporivir and the kinase inhibitor sorafenib in” for “NV556 (10)”, “one single” for “one”, “or means of two independent experiments” for “with each cell line”, “All three” for “Both”

LIXC-004 = assay: 7-day proliferation assay, Calcein AM staining; type: cell-based; details: Homo sapiens, 168 h, Example 6, n 2
Method: as §1, §2
as §3, with “the cyclophilin inhibitor alisporivir and the kinase inhibitor sorafenib in” for “NV556 (10)”, “one single” for “one”, “or means of two independent experiments” for “with each cell line”, “All three” for “Both”

LIXC-011 = assay: 7-day proliferation assay, Calcein AM staining; type: cell-based; details: Homo sapiens, 168 h, Example 6, n 1
Method: as §1, §2
as §3, with “the cyclophilin inhibitor alisporivir and the kinase inhibitor sorafenib in” for “NV556 (10)”, “one single” for “one”, “or means of two independent experiments” for “with each cell line”, “All three” for “Both”

HepG2 [2] = assay: 7-day proliferation assay, Calcein AM staining; type: cell-based; details: Homo sapiens, 168 h, Example 6, n 2
Method: as §1, §2
as §3, with “the cyclophilin inhibitor alisporivir and the kinase inhibitor sorafenib in” for “NV556 (10)”, “one single” for “one”, “or means of two independent experiments” for “with each cell line”, “All three” for “Both”

LIXC-003 = assay: 7-day proliferation assay, Calcein AM staining; type: cell-based; details: Homo sapiens, 168 h, Example 6, n 2
Method: as §1, §2
as §3, with “the cyclophilin inhibitor alisporivir and the kinase inhibitor sorafenib in” for “NV556 (10)”, “one single” for “one”, “or means of two independent experiments” for “with each cell line”, “All three” for “Both”

[3] = test system: human hepatocyte cancer cell lines; assay: 7-day proliferation assay, comparison of potency over the cell lines; type: cell-based
Method: as §1, §3
as §3, with “the cyclophilin inhibitor alisporivir and the kinase inhibitor sorafenib in” for “NV556 (10)”, “one single” for “one”, “or means of two independent experiments” for “with each cell line”, “All three” for “Both”

cyclophilin A (CyPA) = cyclophilin A (CyPA) (Homo sapiens, UniProt P62937); details: cited from earlier work
[4] = test system: cancer cell lines Huh7, HepG2 and OEM; details: three cancer cell lines Huh7, HepG2 and OEM; WO2011/098805; cited from earlier work

Sequence of cyclophilin A (CyPA) (P62937 whole entry, species assumed): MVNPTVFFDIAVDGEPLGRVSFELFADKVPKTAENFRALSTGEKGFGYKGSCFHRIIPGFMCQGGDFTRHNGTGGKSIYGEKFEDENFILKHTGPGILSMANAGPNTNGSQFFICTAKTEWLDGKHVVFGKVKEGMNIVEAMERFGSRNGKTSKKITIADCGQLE

**Q.** With `CC(=O)CC[C@H]1C(=O)N[C@@H](C(C)C)C(=O)N[C@@H](Cc2cc(O)cc(F)c2)C(=O)N2CCCC(N2)C(=O)O[C@H](/C(C)=C/C=C/C(=O)OC(C)(C)C)C/C=C/C=C/[C@H](O)[C@H](C)[C@H]1O` (stereo partly drawn) [Compound 1] as the compound, how does the IC50 (LIXC-002) read?
**A.** < 3 nM

**Q.** What about the IC50 (LIXC-086; Example 5, one experiment) of the same compound?
**A.** 905 nM

**Q.** And the IC50 (LIXC-086; Example 6, n 1)?
**A.** 686 nM

**Q.** What about the IC50 (LIXC-066; Example 5, one experiment) of the same compound?
**A.** 93 nM

**Q.** What about the IC50 (LIXC-066; Example 6, n 1) of the same compound?
**A.** 169 nM

**Q.** What about the IC50 (LIXC-006; Example 5, one experiment) of the same compound?
**A.** 9 nM

**Q.** And the IC50 (LIXC-006; Example 6, n 2)?
**A.** 6 nM

**Q.** What about the IC50 (Hep3B2.1-7-Luc; Example 5, one experiment) of the same compound?
**A.** 11 nM

**Q.** What about the IC50 (Hep3B2.1-7-Luc; Example 6, n 1) of the same compound?
**A.** 9 nM

**Q.** What about the “growth inhibitory effect of simultaneous treatment” value (HepG2 [1]) of the same compound?
**A.** synergistic growth inhibitory effect

**Q.** And the IC50 (LIXC-012)?
**A.** 65 nM

**Q.** And the IC50 (LIXC-004)?
**A.** 4 nM

**Q.** And the IC50 (LIXC-011)?
**A.** 12 nM

**Q.** What about the IC50 (HepG2 [2]) of the same compound?
**A.** 7 nM

**Q.** And the IC50 (LIXC-003)?
**A.** 8 nM

**Q.** And the “potency relative to NV556 (10)” value ([3]; Example 5, all cases (5 cell lines))?
**A.** 3-10 fold

**Q.** And the “potency relative to alisporivir” value ([3]; Example 6, all cases (9 cell lines))?
**A.** 3-1000 fold

**Q.** And the “potency relative to sorafenib” value ([3]; Example 6, in 8/9 cases)?
**A.** 3-600 fold

**Q.** With `CC[C@H]1C[C@H](C)[C@@]2(NC1=O)O[C@@H](C[C@H](O)[C@@H](C)CC/C=C/C=C(\C)[C@@H]1C/C=C/C=C/[C@H](O)[C@H](C)[C@@H](O)[C@@H](CCC(C)=O)C(=O)N[C@@H](C(C)C)C(=O)N[C@@H](Cc3cccc(O)c3)C(=O)N3CCC[C@H](N3)C(=O)O1)[C@H](C)[C@H](O)[C@@H]2C` [SfA, Sanglifehrin A] as the compound, how does the “affinity for CyPA compared to CsA” value (cyclophilin A (CyPA); higher affinity) read?
**A.** approximately 20 fold

**Q.** For `CC(=O)CCC1C(=O)NC(C(C)C)C(=O)NC(Cc2cccc(O)c2)C(=O)N2CCCC(N2)C(=O)OC(C(C)=CCO)CC=CC=CC(O)C(C)C1O` (stereo not drawn) [hydroxymacrocycle], which “affinity for CyPA” value (cyclophilin A (CyPA); Sedrani et al., 2003) is on record?
**A.** strong affinity

**Q.** Which “effect on cancer cell lines” value [4] does the source give for `CC(=O)CCC1C(=O)NC(C(C)C)C(=O)NC(Cc2cccc(O)c2)C(=O)N2CCCC(N2)C(=O)OC(C(C)=CC=CC(=O)OC(C)(C)C)CC=CC=CC(O)C(C)C1O` (stereo not drawn) [compound 9] here?
**A.** limited effect
